Laboratory results published in ChEMBL document CHEMBL3045428, “Hypolipidemic, hepato-protective and renal damage recovering effects of catechin isolated from the methanolic extract of Cassia fistula stem bark on Streptozotocin-induced diabetic Wistar rats: a biochemical and morphological analysis” (Med Chem Res, 2012).
Active and inactive are the calls of the source. The rule behind the calls is not given here.

What was measured:
[1] = system: Rattus norvegicus; assay: Hepatoprotective activity in STZ-induced diabetic Rattus norvegicus Wistar albino (rat) assessed as plasma AST level at 20 mg/kg, po administered via intragastric tube for 45 days (reference value: 85.5 +/-9.21 ug/dl); type: functional
[2] = system: Rattus norvegicus; assay: Hepatoprotective activity in STZ-induced diabetic Rattus norvegicus Wistar albino (rat) assessed as plasma ALT level at 20 mg/kg, po administered via intragastric tube for 45 days (reference value: 97.11 +/-10.3 ug/dl); type: functional
[3] = system: Rattus norvegicus; assay: Nephroprotective activity in STZ-induced diabetic Rattus norvegicus Wistar albino (rat) assessed as change in serum creatinine level at 20 mg/kg, po administered via intragastric tube for 45 days (reference value: 2.1 +/-0.9 mg/dl); type: functional
[4] = system: Rattus norvegicus; assay: Antidiabetic activity against STZ-induced diabetic Rattus norvegicus Wistar albino (rat) assessed as serum HDL level at 20 mg/kg, po administered via intragastric tube for 45 days (reference value: 25.8 +/-1.6 mg/dl); type: functional
[5] = system: Rattus norvegicus; assay: Hepatoprotective activity in STZ-induced diabetic Rattus norvegicus Wistar albino (rat) assessed as plasma ALP level at 20 mg/kg, po administered via intragastric tube for 45 days (reference value: 91.1 +/-9.2 ug/dl); type: functional
[6] = system: Rattus norvegicus; assay: Antidiabetic activity against STZ-induced diabetic Rattus norvegicus Wistar albino (rat) assessed as serum VLDL level at 20 mg/kg, po administered via intragastric tube for 45 days (reference value: 55.2 +/-4.5 mg/dl); type: functional
[7] = system: Rattus norvegicus; assay: Hepatoprotective activity in STZ-induced diabetic Rattus norvegicus Wistar albino (rat) assessed as plasma ACP level at 20 mg/kg, po administered via intragastric tube for 45 days (reference value: 28.7 +/-2.61 ug/dl); type: functional
[8] = system: Rattus norvegicus; assay: Antidiabetic activity against STZ-induced diabetic Rattus norvegicus Wistar albino (rat) assessed as change in body weight at 20 mg/kg, po administered via intragastric tube for 45 days (reference value: 243.67 +/-8.9 g); type: functional
[9] = system: Rattus norvegicus; assay: Antidiabetic activity against STZ-induced diabetic Rattus norvegicus Wistar albino (rat) assessed as change in glycosylated hemoglobin of total hemoglobin at 20 mg/kg, po administered via intragastric tube for 45 days (reference value: 0.89 +/-0.03 %); type: functional
[10] = system: Rattus norvegicus; assay: Nephroprotective activity in STZ-induced diabetic Rattus norvegicus Wistar albino (rat) assessed as reduction in enlargement of glomerulus at 20 mg/kg, po administered via intragastric tube for 45 days using hematoxylin/eosin staining method; type: functional, organism-based; parameters: dose 20 mg/kg
[11] = system: Rattus norvegicus; assay: Antidiabetic activity against STZ-induced diabetic Rattus norvegicus Wistar albino (rat) assessed as serum LDL level at 20 mg/kg, po administered via intragastric tube for 45 days (reference value: 165.7 +/-14.35 mg/dl); type: functional
[12] = system: Rattus norvegicus; assay: Nephroprotective activity in STZ-induced diabetic Rattus norvegicus Wistar albino (rat) assessed as change in serum total protein level at 20 mg/kg, po administered via intragastric tube for 45 days (reference value: 3.7 +/-0.9 g/dl); type: functional
[13] = system: Rattus norvegicus; assay: Antidiabetic activity against STZ-induced diabetic Rattus norvegicus Wistar albino (rat) assessed as change in hemoglobin at 20 mg/kg, po administered via intragastric tube for 45 days (reference value: 8.5 +/-0.9 mg/dl); type: functional
[14] = system: Rattus norvegicus; assay: Nephroprotective activity in STZ-induced diabetic Rattus norvegicus Wistar albino (rat) assessed as reduction in glomerular expansion at 20 mg/kg, po administered via intragastric tube for 45 days using hematoxylin/eosin staining method; type: functional, organism-based; parameters: dose 20 mg/kg
[15] = system: Rattus norvegicus; assay: Nephroprotective activity in STZ-induced diabetic Rattus norvegicus Wistar albino (rat) assessed as change in serum uric acid level at 20 mg/kg, po administered via intragastric tube for 45 days (reference value: 1.5 +/-0.9 mg/dl); type: functional
[16] = system: Rattus norvegicus; assay: Antidiabetic activity against STZ-induced diabetic Rattus norvegicus Wistar albino (rat) assessed as serum triglyceride level at 20 mg/kg, po administered via intragastric tube for 45 days (reference value: 65.5 +/-7.9 mg/dl); type: functional
[17] = system: Rattus norvegicus; assay: Hepatoprotective activity in STZ-induced diabetic Rattus norvegicus Wistar albino (rat) assessed as re-apperance of hepatic lobules at 20 mg/kg, po administered via intragastric tube for 45 days using hematoxylin/eosin staining method; type: functional, organism-based; parameters: dose 20 mg/kg; details: Liver
[18] = system: Rattus norvegicus; assay: Nephroprotective activity in STZ-induced diabetic Rattus norvegicus Wistar albino (rat) assessed as change in serum urea level at 20 mg/kg, po administered via intragastric tube for 45 days (reference value: 41.5 +/-4.9 mg/dl); type: functional
[19] = system: Rattus norvegicus; assay: Antidiabetic activity against STZ-induced diabetic Rattus norvegicus Wistar albino (rat) assessed as serum cholesterol level at 20 mg/kg, po administered via intragastric tube for 45 days (reference value: 295.5 +/-17.1 mg/dl); type: functional
[20] = system: Rattus norvegicus; assay: Toxicity in Rattus norvegicus Wistar albino (rat) assessed as change in glycosylated hemoglobin of total hemoglobin at 20 mg/kg, po administered via intragastric tube for 45 days (reference value: 0.52 +/-0.03 % ); type: organism-based; parameters: dose 20 mg/kg, route oral; details: in vivo, 1080 h
[21] = system: Rattus norvegicus; assay: Nephrotoxicity in Rattus norvegicus Wistar albino (rat) assessed as change in urea level in serum at 20 mg/kg, po administered via intragastric tube for 45 days (reference value: 24.12 +/- 2.3 mg/dl ); type: toxicity, organism-based; parameters: dose 20 mg/kg, route oral; details: in vivo, 1080 h
[22] = system: Rattus norvegicus; assay: Nephrotoxicity in Rattus norvegicus Wistar albino (rat) assessed as change in serum total protein level at 20 mg/kg, po administered via intragastric tube for 45 days (reference value: 8.12 +/- 1.0 g/dl ); type: toxicity, organism-based; parameters: dose 20 mg/kg, route oral; details: in vivo, 1080 h
[23] = system: Rattus norvegicus; assay: Toxicity in Rattus norvegicus Wistar albino (rat) assessed as serum triglyceride level at 20 mg/kg, po administered via intragastric tube for 45 days (Rvb =17.72 +/-1.3 mg/dl); type: organism-based; parameters: dose 20 mg/kg, route oral; details: in vivo, 1080 h
[24] = system: Rattus norvegicus; assay: Toxicity in Rattus norvegicus Wistar albino (rat) assessed as change in body weight at 20 mg/kg, po administered via intragastric tube for 45 days (reference value: 238.2 +/-7.3 g); type: organism-based; parameters: dose 20 mg/kg, route oral; details: in vivo, 1080 h
[25] = system: Rattus norvegicus; assay: Toxicity in Rattus norvegicus Wistar albino (rat) assessed as change in hemoglobin level at 20 mg/kg, po administered via intragastric tube for 45 days (reference value: 15.12 +/-1.3 mg/dl ); type: organism-based; parameters: dose 20 mg/kg, route oral; details: in vivo, 1080 h
[26] = system: Rattus norvegicus; assay: Hepatotoxicity in Rattus norvegicus Wistar albino (rat) assessed as change in plasma ACP level at 20 mg/kg, po administered via intragastric tube for 45 days (reference value: 9.97+/-1.1 ug/dl); type: toxicity, organism-based; parameters: dose 20 mg/kg, route oral; details: in vivo, 1080 h
[27] = system: Rattus norvegicus; assay: Hepatotoxicity in Rattus norvegicus Wistar albino (rat) assessed as change in plasma ALT level at 20 mg/kg, po administered via intragastric tube for 45 days (reference value: 56.72 +/-5.2 ug/dl); type: toxicity, organism-based; parameters: dose 20 mg/kg, route oral; details: in vivo, 1080 h
[28] = system: Rattus norvegicus; assay: Toxicity in Rattus norvegicus Wistar albino (rat) assessed as serum cholesterol level at 20 mg/kg, po administered via intragastric tube for 45 days (reference value: 97.72 +/-7.3 mg/dl); type: organism-based; parameters: dose 20 mg/kg, route oral; details: in vivo, 1080 h
[29] = system: Rattus norvegicus; assay: Hepatotoxicity in Rattus norvegicus Wistar albino (rat) assessed as change in plasma AST level at 20 mg/kg, po administered via intragastric tube for 45 days (reference value: 39.6 +/-3.3 ug/dl); type: toxicity, organism-based; parameters: dose 20 mg/kg, route oral; details: in vivo, 1080 h
[30] = system: Rattus norvegicus; assay: Toxicity in Rattus norvegicus Wistar albino (rat) assessed as serum HDL level at 20 mg/kg, po administered via intragastric tube for 45 days (Rvb =65.21 +/-6.9 mg/dl); type: organism-based; parameters: dose 20 mg/kg, route oral; details: in vivo, 1080 h
[31] = system: Rattus norvegicus; assay: Hepatotoxicity in Rattus norvegicus Wistar albino (rat) assessed as change in plasma ALP level at 20 mg/kg, po administered via intragastric tube for 45 days (reference value: 49.99+/-4.7 ug/dl); type: toxicity, organism-based; parameters: dose 20 mg/kg, route oral; details: in vivo, 1080 h
[32] = system: Rattus norvegicus; assay: Nephrotoxicity in Rattus norvegicus Wistar albino (rat) assessed as change in creatinine level in serum at 20 mg/kg, po administered via intragastric tube for 45 days (reference value: 1.62 +/- 0.2 mg/dl ); type: toxicity, organism-based; parameters: dose 20 mg/kg, route oral; details: in vivo, 1080 h
[33] = system: Rattus norvegicus; assay: Nephrotoxicity in Rattus norvegicus Wistar albino (rat) assessed as change in uric acid level in serum at 20 mg/kg, po administered via intragastric tube for 45 days (reference value: 0.96 +/- 0.93 mg/dl ); type: toxicity, organism-based; parameters: dose 20 mg/kg, route oral; details: in vivo, 1080 h

## Oc1cc(O)c2c(c1)OC(c1ccc(O)c(O)c1)C(O)C2 (stereo not drawn) [CATECHIN]
[1]
  Activity: 41.95 µg/dL
[2]
  Activity: 59.71 µg/dL
[3]
  Activity: 1.78 mg/dL
[4]
  Activity: 60.56 mg/dL
[5]
  Activity: 54.29 µg/dL
[6]
  Activity: 13.21 mg/dL
[7]
  Activity: 11.98 µg/dL
[8]
  Activity: 209.12 g
[9]
  Activity: 0.57%
[10]
  Activity: Active
[11]
  Activity: 91.28 mg/dL
[12]
  Activity: 6.58 g/dL
[13]
  Activity: 14.98 mg/dL
[14]
  Activity: Active
[15]
  Activity: 0.99 mg/dL
[16]
  Activity: 20.81 mg/dL
[17]
  Activity: Active
[18]
  Activity: 29.98 mg/dL
[19]
  Activity: 109.21 mg/dL

## Oc1cc(O)c2c(c1)O[C@H](c1ccc(O)c(O)c1)[C@@H](O)C2 [CATECHIN]
[20]
  Activity: 0.46%
[21]
  Activity: 23.98 mg/dL
[22]
  Activity: 8.98 g/dL
[23]
  Activity: 18.18 mg/dL
[24]
  Activity: 239.67 g
[25]
  Activity: 14.98 mg/dL
[26]
  Activity: 9.52 µg/dL
[27]
  Activity: 55.18 µg/dL
[28]
  Activity: 98.34 mg/dL
[29]
  Activity: 36.12 µg/dL
[30]
  Activity: 68.65 mg/dL
[31]
  Activity: 50.87 µg/dL
[32]
  Activity: 1.98 mg/dL
[33]
  Activity: 0.98 mg/dL
